Assay: Oxidation reducing capability for glyoxal by hydrogen peroxide-luminol chemiluminescence
Conditions: added to 1.0 mM, 10.0 mM and 100.0 mM glyoxal; compared to Comparative Example 1; n=3
Procedure: At the elapse of 30 seconds, 1000 μl of hydrogen peroxide was further mixed therein. Then, the chemiluminescence (CL) count (number of photons) was identified continuously for 150 seconds. Measurement was initiated when the CL counts came to 200 s per second (total time: 180 seconds). For the confirmation and measurement of the CL counts, a CL analyzer (product of TOHOKU ELECTRONIC INDUSTRIAL CO., LTD.) was employed. Using the dialysis solution preparation water of Example 1 and Comparative Example 1 obtained in Experiment 1, an evaluation experiment on the oxidation reducing capability for glyoxal was conducted. An evaluation experiment (n=3) employing hydrogen peroxide-luminol chemiluminescence similar to that of Experiment 1 was carried out, provided that the test liquid used was prepared by adding 45 μl of each dialysis solution preparation water into 45 μl of glyoxal with the concentration of 1.0 mM, 10.0 mM and 100.0 mM such that the total amount of the test liquid was 90 μl. For a reference example, a similar experiment (n=3) was carried out employing ascorbic acid (well known as a free radical scavenge substance). The test liquid was prepared such that the ascorbic acid was added to attain 1.0 μg/ml for […].

O=C1O[C@H]([C@@H](O)CO)C(O)=C1O [ascorbic acid]
CL total count: reduced significantly
